Experimental data taken from US20230085307A1, “PYRIDAZINONE COMPOUND AND HERBICIDE” (NISSAN CHEMICAL CORPORATION, priority 2019, published 2023).

System: green foxtail
Assay: Test Example 5: herbicidal effect by foliage application, plastic box (Table 20, symbol G)
Format: in vivo, green foxtail (Setaria viridis)
Settings: foliage application, 320 g/ha, evaluated three weeks after application
Method in brief: (§1)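 Sow seeds spot-wise in sterilized diluvial soil; cover with ~1.5 cm soil. Grow 14 days in greenhouse, 25° C. to 30° C. Spray foliage with emulsion diluted to predetermined amount. Rate effect after 3 weeks.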

SMILES | herbicidal effect on G: green foxtail (criteria 0-5)
C=Cc1ccc2sc(-c3ccccc3OC)c(-c3c(O)c(C)nn(C)c3=O)c2c1 [2-185] | 3 (Herbicidal rate of 40% or more and less than 70%)

System: redroot pigweed
Assay: Test Example 4: herbicidal effect by soil treatment (Table 19, symbol N)
Format: in vivo, redroot pigweed (Amaranthus retroflexus)
Settings: amount of applied herbicide 320 g/ha
Method in brief: (§2)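 Soil-surface application: an emulsion agent diluted with water to the predetermined dose is sprayed uniformly over seeds lying under roughly 1.5 cm of sterilized diluvial soil. Boxes stay in a greenhouse at 25° C. to 30° C. Three weeks later, each species is graded on previously defined criteria.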

SMILES | N: redroot pigweed, herbicidal effect rating
C=Cc1ccc2sc(-c3ccccc3OC)c(-c3c(O)c(C)nn(C)c3=O)c2c1 [2-185] | 5 (Herbicidal rate of 90% or more (almost completely withered))

System: blackgrass
Assay: Test Example 5: herbicidal effect by foliage application, plastic box (Table 20, symbol J)
Format: in vivo, blackgrass (Alopecurus myosuroides)
Settings: foliage application, 320 g/ha, evaluated three weeks after application
Method in brief: as §1

SMILES | herbicidal effect on J: blackgrass (criteria 0-5)
C=Cc1ccc2sc(-c3ccccc3OC)c(-c3c(O)c(C)nn(C)c3=O)c2c1 [2-185] | 1 (Herbicidal rate of 5% or more and less than 20%)

System: windgrass
Assay: Test Example 4: herbicidal effect by soil treatment (Table 19, symbol L)
Format: in vivo, windgrass (Apera spica-venti)
Settings: amount of applied herbicide 320 g/ha
Method in brief: as §2

SMILES | L: windgrass, herbicidal effect rating
C=Cc1ccc2sc(-c3ccccc3OC)c(-c3c(O)c(C)nn(C)c3=O)c2c1 [2-185] | 0 (Herbicidal rate of 5% or less (almost no effect))

System: southern crabgrass
Assay: Test Example 5: herbicidal effect by foliage application, plastic box (Table 20, symbol F)
Format: in vivo, southern crabgrass (Digitaria ciliaris)
Settings: foliage application, 320 g/ha, evaluated three weeks after application
Method in brief: as §1

SMILES | herbicidal effect on F: southern crabgrass (criteria 0-5)
C=Cc1ccc2sc(-c3ccccc3OC)c(-c3c(O)c(C)nn(C)c3=O)c2c1 [2-185] | 2 (Herbicidal rate of 20% or more and less than 40%)

System: late watergrass
Assay: Test Example 1: herbicidal activity, application before weed generation under submerged conditions (Table 16, symbol A)
Format: in vivo, late watergrass (Echinochloa oryzicola)
Settings: 320 g/ha applied herbicide
Method in brief: (§3)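 Emulsion formulation, water-diluted to set dose, was put onto the flooded surface (4 cm depth, alluvial soil) the same day weeds were sown and 2.5-leaf rice transplanted. After 3 weeks at 25-30 °C under glass, each species was rated 0 (≤5% kill) to 5 (≥90% kill).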

SMILES | Herbicidal effect on A: late watergrass (grade 0-5)
C=Cc1ccc2sc(-c3ccccc3OC)c(-c3c(O)c(C)nn(C)c3=O)c2c1 [2-185] | 0 (Herbicidal rate of 5% or less (almost no effect))

System: barnyard grass
Assay: Test Example 5: herbicidal effect by foliage application, plastic box (Table 20, symbol H)
Format: in vivo, barnyard grass (Echinochloa crus-galli)
Settings: foliage application, 320 g/ha, evaluated three weeks after application
Method in brief: as §1

SMILES | herbicidal effect on H: barnyard grass (criteria 0-5)
C=Cc1ccc2sc(-c3ccccc3OC)c(-c3c(O)c(C)nn(C)c3=O)c2c1 [2-185] | 0 (Herbicidal rate of 5% or less (almost no effect))

System: persian speedwell
Assay: Test Example 5: herbicidal effect by foliage application, plastic box (Table 20, symbol R)
Format: in vivo, Persian speedwell (Veronica persica)
Settings: foliage application, 320 g/ha, evaluated three weeks after application
Method in brief: as §1

SMILES | herbicidal effect on R: persian speedwell (criteria 0-5)
C=Cc1ccc2sc(-c3ccccc3OC)c(-c3c(O)c(C)nn(C)c3=O)c2c1 [2-185] | 4 (Herbicidal rate of 70% or more and less than 90%)

System: rice flat sedge
Assay: Test Example 3: herbicidal effect by foliage application, Wagner pot (Table 18, symbol E)
Format: in vivo, rice flat sedge (Cyperus iria)
Settings: amount of applied herbicide 320 g/ha
Method in brief: (§4)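 Plants were sown in alluvial soil held under 0.1–0.5 cm standing water and grown 14 days in a greenhouse at 25–30 °C. An emulsifiable formulation, water-diluted to the set dose, was then sprayed onto the foliage, and effects were scored three weeks later using previously defined criteria.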

SMILES | herbicidal effect on E: rice flat sedge
C=Cc1ccc2sc(-c3ccccc3OC)c(-c3c(O)c(C)nn(C)c3=O)c2c1 [2-185] | 2 (Herbicidal rate of 20% or more and less than 40%)

System: Italian ryegrass
Assay: Test Example 4: herbicidal effect by soil treatment (Table 19, symbol K)
Format: in vivo, Italian ryegrass (Lolium multiflorum)
Settings: amount of applied herbicide 320 g/ha
Method in brief: as §2

SMILES | K: Italian ryegrass, herbicidal effect rating
C=Cc1ccc2sc(-c3ccccc3OC)c(-c3c(O)c(C)nn(C)c3=O)c2c1 [2-185] | 0 (Herbicidal rate of 5% or less (almost no effect))

System: late watergrass
Assay: Test Example 2: herbicidal activity, application during weed generation under submerged conditions (Table 17, symbol A)
Format: in vivo, late watergrass (Echinochloa oryzicola)
Settings: AAH 320 g/ha; application during weed generation, submerged conditions
Method in brief: (§5)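 Effect on each weed is rated three weeks post-treatment, using the same scoring criteria as the preceding test. Plants grow from mixed-sown seed in flooded alluvial soil (4 cm water) at 25° C. to 30° C., and are treated at one to two leaves with diluted emulsion dropped onto the water.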

SMILES | herbicidal effect rating, A: late watergrass
C=Cc1ccc2sc(-c3ccccc3OC)c(-c3c(O)c(C)nn(C)c3=O)c2c1 [2-185] | 3 (Herbicidal rate of 40% or more and less than 70%)

System: Chinese sprangletop
Assay: Test Example 3: herbicidal effect by foliage application, Wagner pot (Table 18, symbol D)
Format: in vivo, chinese sprangletop (Leptochloa chinensis)
Settings: amount of applied herbicide 320 g/ha
Method in brief: as §4

SMILES | herbicidal effect on D: Chinese sprangletop
C=Cc1ccc2sc(-c3ccccc3OC)c(-c3c(O)c(C)nn(C)c3=O)c2c1 [2-185] | 0 (Herbicidal rate of 5% or less (almost no effect))

System: oval-leafed pondweed
Assay: Test Example 2: herbicidal activity, application during weed generation under submerged conditions (Table 17, symbol C)
Format: in vivo, oval-leafed pondweed (Monochoria vaginalis)
Settings: AAH 320 g/ha; application during weed generation, submerged conditions
Method in brief: as §5

SMILES | herbicidal effect rating, C: oval-leafed pondweed
C=Cc1ccc2sc(-c3ccccc3OC)c(-c3c(O)c(C)nn(C)c3=O)c2c1 [2-185] | 0 (Herbicidal rate of 5% or less (almost no effect))

System: Japanese bulrush
Assay: Test Example 1: herbicidal activity, application before weed generation under submerged conditions (Table 16, symbol B)
Format: in vivo, Japanese bulrush (Schoenoplectus juncoides)
Settings: 320 g/ha applied herbicide
Method in brief: as §3

SMILES | Herbicidal effect on B: Japanese bulrush (grade 0-5)
C=Cc1ccc2sc(-c3ccccc3OC)c(-c3c(O)c(C)nn(C)c3=O)c2c1 [2-185] | 5 (Herbicidal rate of 90% or more (almost completely withered))

System: barnyard grass
Assay: Test Example 3: herbicidal effect by foliage application, Wagner pot (Table 18, symbol H)
Format: in vivo, barnyard grass (Echinochloa crus-galli)
Settings: amount of applied herbicide 320 g/ha
Method in brief: as §4

SMILES | herbicidal effect on H: barnyard grass
C=Cc1ccc2sc(-c3ccccc3OC)c(-c3c(O)c(C)nn(C)c3=O)c2c1 [2-185] | 3 (Herbicidal rate of 40% or more and less than 70%)

System: wild oat
Assay: Test Example 5: herbicidal effect by foliage application, plastic box (Table 20, symbol I)
Format: in vivo, wild oat (Avena fatua)
Settings: foliage application, 320 g/ha, evaluated three weeks after application
Method in brief: as §1

SMILES | herbicidal effect on I: wild oat (criteria 0-5)
C=Cc1ccc2sc(-c3ccccc3OC)c(-c3c(O)c(C)nn(C)c3=O)c2c1 [2-185] | 0 (Herbicidal rate of 5% or less (almost no effect))
